From patent US20220323761A1, “METHOD FOR INDUCING HIBERNATION-LIKE STATE AND DEVICE SAME” (University of Tsukuba, priority 2019, published 2022)

Key:
[1] = tested on: hM3Dq-mCherry expressing neurons; experiment: Electrophysiological study of hypothalamus slices, current-clamp firing; format: cell-based; settings: bath-application, CNO 1 μM, slices of Q-hM3D mice
Experimental: The mice were decapitated under deep anesthesia using isoflurane (Pfizer). The brains were extracted and cooled in an ice-cold cutting solution containing the following (mM): 125 mM choline chloride, 25 mM NaHCO3, 10 mM D(+)-glucose, 7 mM MgCl2, 2.5 mM KCl, 1.25 mM NaH2PO4, and 0.5 mM CaCl2) bubbled with O2 (95%) and CO2 (5%). Horizontal brain slices (thickness of 250 μm) including the hypothalamus were prepared using a vibratome (VT1200S, Leica) and were maintained at room temperature for one hour in artificial CSF (ACSF) containing the following (mM): 125 mM NaCl, 26 mM NaHCO3, 10 mM D(+)-glucose, 2.5 mM KCl, 2 mM CaCl2), and 1 mM MgSO4 bubbled with O2 (95%) and CO2 (5%). The electrodes (5 to 8 MΩ) were filled with an internal solution containing the following (mM): 125 mM K-gluconate, 10 mM HEPES, 10 mM phosphocreatine, 0.05 mM tolbutamide, 4 mM NaCl, 4 mM ATP, 2 mM MgCl2, 0.4 mM GTP, and 0.2 mM EGTA, with a pH of 7.3 and adjusted with KOH). Firing of hM3Dq-mCherry expressing neurons was recorded in a current-clamp mode at a temperature of 30° C. CNO (1 μM) was bath-applied, and the effect was examined. The membrane voltage and data acquisition were controlled using a combination of the MultiClamp 700B amplifier, the Digidata 1440A A/D converter and Clampex 10.3 software (Molecular Devices). […]

hM3Dq in Q-neurons = molecular target: T1, hM3Dq in Q-neurons (Homo sapiens, UniProt P20309, A239G/Y149C); experiment: Body temperature, respiratory gas, ECG, EEG, respiration and serum analysis of Q-hM3D mice after IP CNO (QIH); format: in vivo
T1 construct: mCherry (C); expressed in transfected cells; host or cells: QRFP-producing (Q) neurons of Qrfp-iCre mice transduced in vivo with AAV10-EF1α-DIO-hM3Dq-mCherry
T1 sequence (P20309 whole entry Y149C/A239G, the tested form may be a part): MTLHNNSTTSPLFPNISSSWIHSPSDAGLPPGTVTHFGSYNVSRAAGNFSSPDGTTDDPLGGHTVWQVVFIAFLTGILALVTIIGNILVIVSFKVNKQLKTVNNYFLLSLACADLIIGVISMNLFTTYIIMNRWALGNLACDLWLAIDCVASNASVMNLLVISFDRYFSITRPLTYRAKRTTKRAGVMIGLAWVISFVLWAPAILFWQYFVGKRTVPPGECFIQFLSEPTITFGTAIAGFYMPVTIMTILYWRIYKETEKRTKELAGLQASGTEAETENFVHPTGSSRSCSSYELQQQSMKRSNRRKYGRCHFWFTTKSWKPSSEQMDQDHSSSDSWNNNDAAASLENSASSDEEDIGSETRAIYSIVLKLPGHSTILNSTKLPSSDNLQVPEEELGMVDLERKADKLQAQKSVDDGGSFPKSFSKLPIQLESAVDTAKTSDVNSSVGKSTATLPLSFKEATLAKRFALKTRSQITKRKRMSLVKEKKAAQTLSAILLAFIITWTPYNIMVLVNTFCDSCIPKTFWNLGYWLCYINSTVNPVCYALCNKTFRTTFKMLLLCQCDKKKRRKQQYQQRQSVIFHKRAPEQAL
From the text: In order to record the core body temperature, oxygen consumption amount, EEG, ECG, and respiratory patterns, each animal was housed in a temperature controlled chamber (HC-100, Shin Factory or LP-400P-AR, Nippon Medical & Chemical Instruments Co., Ltd.). In order to continuously record the TB (intraperitoneal temperature), a telemetry temperature sensor (TA11TA-F10, DSI) was implanted into the animal's abdominal cavity under general inhalation anesthesia at least 7 days prior to the recording. The VO 2 and carbon dioxide discharge rate (VCO2) of the animal were continuously recorded using a respiratory gas analyzer (ARCO-2000 mass spectrometer, ARCO System). The respiratory quotient was calculated from the ratio of VCO2/VO2.
The EEG and ECG were recorded using a implanted remote measurement transmitter (F20-EET or HD-X02, DSI). For EEG recording, two stainless steel screws (1 mm in diameter) were soldered to a wire of a telemetry transmitter and inserted under general anesthesia through the skull of the cortex (AP, 1.00 mm; right, 1.50 mm from bregma or lambda). Two other wires from the transmitter were placed on the surface of the thoractic cavity, and an ECG was recorded. The mice were allowed to recover from surgery for at least 10 days. An EEG/ECG data collecting system consisted of transmitters, an analog-digital converter and a recording computer with the software Ponemah Physiology Platform (version 6.30, DSI). The sampling rate was 500 Hz for both the EEG and the ECG, and the data was converted into ASCII format for review. The heart rate was evaluated through a visual inspection of the waveform.
The respiratory flow was recorded using a non-invasive respiratory flow recording system^35. Specifically, a mouse was placed in metabolic chamber (TMC-1213-PMMA, Minamiderika Shokai) having an air flow of at least 0.3 L/min. The chamber was connected to a pressure sensor (PMD-8203-3G, Biotex), and the pressure difference between the outside and inside of the chamber was detected. If the animal is breathing, the pressure difference from the outside to the inside increases during inhalation and decreases during exhalation^35. An analog signal output from the sensor was converted to a digital signal by an AD converter (NI-9205, National Instruments) at 250 Hz, and stored in a computer using data logging software developed by Biotex Inc.
The Dreadd agonist CNO (clozapine N-oxide, Abcam, ab141704) was dissolved in physiological saline at a dose of 100 μg/mL, and the solution was frozen at −20° C. The CNO solution was thawed on site and then administered to each mouse intraperitoneally at a dose of 1 mg/kg. The adenosineAl receptor agonist CHA (N^6-cyclohexyl adenosine, Sigma-Aldrich, C9901) was dissolved in physiological saline at a concentration of 250 μg/mL, and the solution was administered intraperitoneally to each mouse at a dose of 2.5 mg/kg.
Blood was collected from the mice under anesthesia through a left ventricular puncture using a 25 gauge needle. The collected blood was stored on ice for less than 2 hours. The sample was centrifuged at 2000 G for 10 minutes at 4° C., and the supernatant was collected and frozen at −30° C. The frozen serum specimens were sent to FUJIFILM Wako Pure Chemical Corporation, and the concentrations of Na (mEq/L), K (mEq/L), Cl (mEq/L), AST (IU/L), ALT (IU/L) LDH (IU/L), CK (IU/L), GLU (mg/dL), and total ketone bodies (μmol/L) were measured.

C[N+]1([O-])CCN(C2=Nc3cc(Cl)ccc3Nc3ccccc32)CC1 [CNO, clozapine N-oxide]
excitation of mCherry-positive neurons [1]: strongly excited | duration of extremely low TB state (below 30° C.) (hM3Dq in Q-neurons; IP injection, Q-hM3D mice): ≥ 48 h | hypothermia compared with Qrfp-iCre; Rosa26^dreaddm3 mice (hM3Dq in Q-neurons; IP injection, Q-hM3D mice): deeper, longer sustained hypothermia | QIH after repeated injections in the same mice (hM3Dq in Q-neurons; Q-hM3D mice): reproducible | condition of mice after recovery from QIH (hM3Dq in Q-neurons; Q-hM3D mice): healthy | electroencephalogram (EEG) in QIH (hM3Dq in Q-neurons; Q-hM3D mice): very low amplitude | induction of QIH (hM3Dq in Q-neurons; Q-hM3D mice): effectively induces QIH | tail temperature (hM3Dq in Q-neurons; Q-hM3D mice, 0.5 hours after IP CNO): increases | O2 consumption rate (VO2) change (hM3Dq in Q-neurons; Q-hM3D mice, CNO-induced hypothermic state): significant reduction | TB change after administration (hM3Dq in Q-neurons; Q-hM3D mice, concurrently with Ts): decreases | duration of QIH with TB of less than 30° C. (hM3Dq in Q-neurons; TA=20° C., one dose 1 mg/kg): ≥ 48 h | time for VO2 to fully return to normal (hM3Dq in Q-neurons; TA=20° C., one dose 1 mg/kg): about 1 week | posture during QIH (hM3Dq in Q-neurons; TA=28° C., Q-hM3D mice, n=4): extended posture | blood glucose levels in QIH (hM3Dq in Q-neurons; blood serum chemical data): reduced | effect of CNO on TB with TeTxLC co-expressed in Q-neurons (hM3Dq in Q-neurons; simultaneous infusion of AAV2/9-hSyn-DIO-TeTxLC-eYFP and AAV10-EF1α-DIO-hM3Dq-mCherry): completely eliminated | heart rate (hM3Dq in Q-neurons; two hours after CNO injection, average of n=3, 758 two hours prior): 215 beats/min | VO2 (hM3Dq in Q-neurons; two hours after CNO injection, 3.60 prior): 1.17 mL/g/h | respiratory rate (hM3Dq in Q-neurons; two hours after CNO injection, 333 prior): undetectable
